Four compounds from PMC9295122, “Sialic Acid Derivatives Inhibit SiaT Transporters and Delay Bacterial Growth” (ACS Chemical Biology, 2022) can be followed below.

In brackets after ≈: the same amount, converted by molar mass.

One data set in a line: LogD pH 7.4 shake flask. The settings on record: 1-octanol / phosphate buffer pH 7.4. Format: physicochemical. The procedure: Distribution coefficients between 1-octanol and phosphate buffer pH 7.4 were determined with a shake flask method with the LC–UV detection of the compound concentration in both phases. The reported range was from −1 to +4.
Another data set in a line: Solid solubility. Format: physicochemical. The settings on record: phosphate buffer, pH 7.4, aqueous buffer, thermodynamic from solid; from solid material, tested up to 2000 μM; read-out: Solid solubility in 0.1 M phosphate buffer pH 7.4. The text has this: Duplicate samples per compound.
Another data set in a line: Plasma stability, mouse. Format: in vitro ADME. The settings on record: 1 μM, 37 °C. On the procedure:
The reaction was started by the addition of the compound to blank plasma in LC vials after preincubation at 37 °C. The initial compound concentration was 1 μM. The reaction was stopped by the addition of ACN at seven time points (0, 0.5, 1, 2, 4, 6, and 23 h). Time point 0 h was about 15–20 s after spiking the plasma with the compound. The samples were centrifuged and the supernatant diluted and analyzed by LC–MS/MS to determine the % of compound remaining relative to the initial concentration of compound.

Data set [1] can be described thus: Plasma-protein binding by RED, range over three species. Format: in vitro ADME. The settings on record: pH 7.2, range over human, mouse, and rat, read-out: free fraction (plasma protein binding by RED). The text has this:
Next, we investigated the physiochemical and absorption, distribution, metabolism, and excretion (ADME) properties of compounds 3a, 3e, and 3f (Tables S5 and S6). […] The logD at pH 7.4 was below 0 for all three compounds (<−0.5 for compounds 3a and 3e). […] Overall, these features represent promising starting points for further development of this class of molecules.
The assay was run in a deep well plate containing RED inserts with semipermeable dialysis membranes. The reaction was started by adding the compounds to a blank plasma in a 5 μM concentration. Opposite to the blank plasma was a compartment containing isotonic sodium–phosphate buffer (pH 7.2) separated from the plasma by the membrane. The plate was equilibrated in a water bath at 37 °C for 4 h. Samples from both the plasma and the buffer side were matrix compensated before protein precipitation. The samples were centrifuged, and the supernatants were diluted and analyzed by LC–MS/MS to determine the % unbound compound. Two incubations per compound per species.

Another data set concerns the target T1, SiaT from P. mirabilis (Proteus mirabilis, UniProt B4EZY7).
T1 construct: made in house
As to the kind of experiment: biochemical. The settings on record: for type of inhibition: PmSiaT, Lineweaver–Burk plot; for Ki: proteoliposome assay, Lineweaver–Burk, read-out: PmSiaT Ki. Format: biochemical. The procedure:
To gain further insights into the molecular mechanisms, we investigated the direct effects of compounds 3e and 3f on the transport activity in proteoliposomes reconstituted with PmSiaT and SaSiaT. A kinetic analysis was performed by measuring the concentration-dependent uptake of [^3H]Neu5Ac in the presence of two different concentrations of the inhibitors 3f (Figure 5a,c) or 3e (Figure 5b,d).
Figure 5 Kinetic analysis of the inhibition of recombinant SiaT from P. mirabilis (A,B) and S. aureus (C,D) reconstituted in proteoliposomes and [^3H]Neu5Ac efflux in proteoliposomes (E,F). (a–d) Data were plotted according to Lineweaver–Burk as a reciprocal transport rate vs reciprocal Neu5Ac concentration. The transport rate was measured, in 5 min, by adding [^3H] Neu5Ac at the indicated concentrations to proteoliposomes containing 20 mM K^+-gluconate in the presence of valinomycin as described in the Supporting Information. [(A,B) P. mirabilis SiaT]; (A) compound 3f 0.25 μM (●) or 0.75 μM (□) was added in comparison to samples without inhibitor (○). (B) Compound 3e 12 μM (●) or 40 μM (□) was added in comparison to samples without an inhibitor (○). [(C,D) S. aureus SiaT]. (C) Compound 3f 80 μM (●) or 200 μM (□) was added in comparison to samples without an inhibitor (○). (D) Compound 3e 5 μM (●) or 12 μM (□) was added in comparison to samples without an inhibitor (○). Results are mean ± s.d. from four independent experiments (n = 4). […] Data are calculated as the percent of residual activity with respect to the control sample (efflux time zero). The results are the means ± s.d. of three independent experiments.
The purified SiaT from P. mirabilis and S. aureus was reconstituted by using the detergent removal procedure with the batchwise method previously pointed out.[16],[21] In brief, 2.5 μg or 5 μg of P. mirabilis and S. aureus SiaT, respectively, were mixed with 120 μL 10% C12E8, 100 μL of 10% egg yolk phospholipids (w/v, in the form of sonicated liposomes as previously described),[43] 20 mM of K^+-gluconate, and 20 mM Hepes Tris pH 7.0 in a final volume of 700 μL. The reconstitution mixture was incubated with 0.5 g Amberlite XAD-4 resin under rotatory stirring (1200 rpm) at 25 °C for 40 min.[44] The amount of reconstituted protein was estimated as previously described.[16]
For uptake experiments, 600 μL of proteoliposomes were loaded onto a Sephadex G-75 column (0.7 cm diameter × 15 cm height), pre-equilibrated with 20 mM Hepes Tris pH 7.0 with 40 mM sucrose to balance the internal osmolarity. Then, valinomycin (0.75 μg/mg phospholipid), prepared in ethanol, was added to the eluted proteoliposomes to generate a K^+ diffusion potential, as previously described. After 10 s of incubation with valinomycin, the transport was started by adding different concentrations of [^3H]-Neu5Ac (as indicated in the figures) to 100 μL proteoliposomes in the presence of 10 mM NaCl for P. mirabilis and 50 mM NaCl for S. aureus. For kinetic measurement, the initial transport rate was measured by stopping the reaction after 5 min, that is, within the initial linear range of [^3H]-Neu5Ac uptake into the proteoliposomes previously described. For efflux measurements, proteoliposomes were preloaded by incubation with [^3H]-Neu5Ac (as indicated in the figures) in the presence of 10 mM NaCl for P. mirabilis and 50 mM NaCl for S. aureus for 20 min. Efflux was started by adding 0.1 mM Neu5Ac or inhibitors to the preloaded proteoliposomes. In both uptake and efflux experiments, the transport assay was terminated by loading each proteoliposome sample (100 μL) on a Sephadex G-75 column (0.6 cm diameter × 8 cm height) to remove the external radioactivity. Proteoliposomes were eluted with 1 mL of 50 mM NaCl and collected in a 4 mL of scintillation mixture, vortexed and counted.

The mark [2] stands for this setting: Neu5Ac transport by PmSiaT in proteoliposomes.

T1 sequence (B4EZY7 whole entry): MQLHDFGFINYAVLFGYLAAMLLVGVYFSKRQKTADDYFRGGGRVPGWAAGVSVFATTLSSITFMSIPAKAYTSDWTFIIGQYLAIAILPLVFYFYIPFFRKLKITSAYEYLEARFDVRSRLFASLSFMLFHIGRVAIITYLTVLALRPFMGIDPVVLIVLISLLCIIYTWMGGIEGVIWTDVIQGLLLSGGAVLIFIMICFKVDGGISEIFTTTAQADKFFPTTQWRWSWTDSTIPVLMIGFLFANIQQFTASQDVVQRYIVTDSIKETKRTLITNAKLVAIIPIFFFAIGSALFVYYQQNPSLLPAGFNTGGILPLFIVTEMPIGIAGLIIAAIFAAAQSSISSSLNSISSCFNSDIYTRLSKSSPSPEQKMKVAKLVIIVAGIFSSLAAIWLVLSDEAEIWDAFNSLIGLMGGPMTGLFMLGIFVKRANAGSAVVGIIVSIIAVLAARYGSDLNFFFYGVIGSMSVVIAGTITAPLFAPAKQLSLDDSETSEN

`CC(=O)NC1C(OCc2ccccc2)CC(O)(C(=O)O)OC1C(O)C(O)CO` (stereo not drawn) [Compound 3a]: the logD (as a rule, the decadic logarithm of the distribution of all forms, ionised or not, between an organic phase and buffer at a given pH) in “LogD pH 7.4 shake flask” was below -0.5. In addition, the solubility (usually the concentration that dissolves in the medium under given conditions) in the data set “Solid solubility” was above 2000 µM. In addition, the “In vitro plasma stability (% compound remaining after 23 h)” value in the data set “Plasma stability, mouse” came to 100%. In addition, the fraction unbound at 4 h, 5 μM in data set [1] was in the range of 0.63 to 0.85.
Consider `CC(=O)NC1C(OCc2cc(F)cc(F)c2)CC(O)(C(=O)O)OC1C(O)C(O)CO` (stereo not drawn) [Compound 3e], for which, at SiaT from P. mirabilis, the type of inhibition entry is reported as “competitive inhibitors” and the inhibition constant (Ki) (in general, a dissociation constant, usually derived from enzyme kinetics or from competition with a known ligand) was found to be 9.9 ± 2.6 µM. In addition, the logD in the data set “LogD pH 7.4 shake flask” is below -0.5. In addition, in “Solid solubility”, the solubility is above 2000 µM. Further, the “In vitro plasma stability (% compound remaining after 23 h)” value in “Plasma stability, mouse” turned out to be 100%. For the same compound, the fraction unbound at 4 h, 5 μM in data set [1] lay in the range of 0.63 to 0.85.
Turning to `CC(=O)NC1C(OCc2cc(Br)cc(Br)c2)CC(O)(C(=O)O)OC1C(O)C(O)CO` (stereo not drawn) [Compound 3f], at SiaT from P. mirabilis, the type of inhibition entry is recorded as “competitive inhibitors” and the inhibitory constant (Ki) was found to be 0.13 ± 0.04 µM. This compound registered a logD in the data set “LogD pH 7.4 shake flask” below 0. In addition, the solubility in “Solid solubility” stood at 1630 µM (≈ 908 µg/mL). Moreover, the “In vitro plasma stability (% compound remaining after 23 h)” value in “Plasma stability, mouse” was determined as 100%. Also, in data set [1], the fraction unbound at 4 h, 5 μM is 0.21 to 0.27.
For the compound `CC(=O)N[C@H]1[C@H]([C@H](O)[C@H](O)CO)OC(O)(C(=O)O)C[C@@H]1O` (stereo partly drawn) [Neu5Ac, 5-N-acetyl neuraminic acid, reference compound], at SiaT from P. mirabilis (setting [2]), the Km (as a rule, the substrate concentration at which the rate is half of its maximum) worked out at 7.5 ± 1.6 µM and the Vmax is on record as 180 ± 56 nmol/mg protein/min.
